Test results reported in patent US20080015147A1, “Method for inhibiting neuronal cell death” (priority 2006, published 2008).

What was measured:
Type in all cases: cell-based, mouse
caspase 3 = experiment: Caspase 3 colorimetric assay; settings: pH 7.4; apoptotic control
Experimental: (§1) Caspase 8 and 3 colorimetric assays were performed on the N38 cells at all pH conditions. The assay was based on the detection of the chromophore pNA after cleavage from the labeled substrate IETD-pNA and DEVD-pNA for caspase 8 and 3, respectively. Comparison of the pNA absorbance from the suspected apoptotic sample was compared to the uninduced neutral pH sample. Caspase 8 and 3 were analysed using the Caspase-3 Colorimetric Activity Assay (Chemicon, Temecula USA) and Caspase-8 Colorimetric Activity Assay (Chemicon, Temecula USA). The cells from each pH treatment described previously at 24 and 48 hrs were removed using a cell scraper and centrifuged at 1500 rpm for 10 minutes. The cells were resuspended in 350 μl of chilled cell lysis buffer containing 500 μl PBS, 5 μl 1% Triton ×100 (Sigma, St. Louis), 25 μl proteinase inhibitor cocktail set III (VWR, Mississauga), 0.5 μM dithiothreitol (DTT) (Sigma, St. Louis) and 2.5 μl phenylmethylsulphonylfluoride (PMSF) diluted in 1 mL of methanol (EM Science, Gibbstown), then incubated on ice for 10 min and centrifuged for 5 minutes at 10,000 rpm. The supernatant, consisting of cytosolic extracts, was transferred to a new tube and a bicinchoninic acid (BCA) protein assay (Pierce, Rockford) was conducted to determine total protein concentration. The absorbance of each sample was measured on a SPECTRAmax Microplate spectrophotometer at 405 nm after an incubation period of 2 hours at 37° C. Changes in caspase 3 activity were determined by comparing the absorbance reading from the induced sample with the level of the uninduced control. Background readings from the buffer were subtracted from the reading of both the induced (pH 6.8, 8.0, 8.4) and uninduced (pH 7.4) samples before calculating changes in caspase 3 activity. The same was done for the detection of caspase 8. As a control, N38 cells were cultured with pH 7.4 DMEM and incubated for 4 days, apoptosis was then induced using 10 μM/ml etoposide and lysed according to the above protocol and used a control for all subsequent caspase 3 detection. All assays were performed with 4 replications.

caspase 8 = experiment: Caspase 8 colorimetric assay; settings: pH 7.4; apoptotic control
Experimental: as §1

cleaved caspase 3 = experiment: Caspase 3 cleavage by immunoblot; settings: 48 hr; any pH condition for TCAP-1
Experimental: Detection of caspase 3 cleavage was determined at 48 hrs. The samples at each pH and control (see above) were lysed using total protein isolation lysis buffer (described above). An aliquot of 25 μl of each sample was combined with 25 μl of 2×20% sodium dodecyl sulphate (SDS) sample buffer and loaded onto a 4-10% HCL-Tris pre cast polyacrylamide gel (BioRad, Mississauga). The gel was run at 200 v for 35 min and proteins were electrotransfered to a Hybond-C nitrocellulose membrane (Amersham, Baie d'Urfé) for 75 min at 100 v. After transfer, the membrane was washed with 10 ml of PBS with 0.05% Tween 20 (PBST) for 5 min at room temperature (RT) and the membrane was incubated in 10 ml of PBST-milk for one hour at RT followed by 3 times for 5 min washes with 10 ml of PBST. The membrane was then incubated with cleaved caspase 3 primary antibody (Cell Signaling Technology, Beverly) at a titre of 1:500 in 6 ml of PBST-milk with gentle agitation overnight at 4° C. The membranes were washed 3 times for 5 min with 10 ml of PBST followed by membrane incubation with anti-rabbit horseradish peroxidase (HRP)-conjugated secondary antibody (Amersham, Baie d'Urfé) at 1:3000 in 6 ml of PBST-milk with gentle agitation for 1 hr at RT. […]

COc1cc([C@@H]2c3cc4c(cc3[C@@H](O[C@@H]3O[C@@H]5CO[C@@H](C)O[C@H]5[C@H](O)[C@H]3O)[C@H]3COC(=O)[C@H]23)OCO4)cc(OC)c1O [Etoposide, etoposide, reference compound]
increase in caspase-3 relative to vehicle-treated cells (caspase 3): 3.5 fold
increase in caspase 8 relative to vehicle-treated cells (caspase 8): greater than 3 fold
caspase 3 cleavage product (17/19 kDa) on western blot (cleaved caspase 3): clearly visible
